Measurements taken from patent publication US4632990A, “Ergoline carboxamides” (Farmitalia Carlo Erba S.p.A., priority 1982, dated 1986).
Like-named read-outs stand apart in the source and are kept apart here.

System: egg-nidation in rats
Test: Nidation inhibition in rats (egg-nidation inhibitory action, indirect measure of anti-prolactin activity)
Type: in vivo, Sprague Dowley rats
Conditions: Rattus norvegicus, po, read-out: Nidation inhibition in rats, ED50
Procedure: Pregnant Sprague Dowley rats weighing 200-250 g were used. The compounds to be tested, dissolved in diluted mineral acids, were administered orally to groups from six to eight rats on day 5 of pregnancy. The animals were sacrificed on day 14 and the uteri were examined. The absence of implantation sites was taken as the criterion of anti-prolactin activity. Several doses were tested for the ED50 evaluation. As reference standard Bromocryptine was used.

[1] = pregnant rats, given on day 5 of pregnancy, absence of implantation sites on day 14

Row | SMILES | ED50 | ED50 [1]
1 | CC(C)C[C@H]1C(=O)N2CCC[C@H]2[C@]2(O)O[C@](NC(=O)[C@@H]3C=C4c5cccc6[nH]c(Br)c(c56)C[C@H]4N(C)C3)(C(C)C)C(=O)N12 [2-bromo-α-ergocryptine, reference compound] | 5.7 mg/kg | 
2 | Cc1cc(NC(=O)[C@@H]2C[C@@H]3c4cccc5[nH]cc(c45)C[C@H]3N(C)C2)nc(C)n1 [Example 1, N-(2', 6'-dimethyl-4'-pyrimidyl)-6-methylergoline-8β-carboxamide] |  | 1.8 mg/kg
3 | Cc1cc(NC(=O)[C@@H]2C[C@@H]3c4cccc5[nH]c(C)c(c45)C[C@H]3N(C)C2)nc(C)n1 [Example 4, N-(2',6'-dimethyl-4'-pyrimidyl)-2,6-dimethylergoline-8β-carboxamide] |  | 0.5 to 1 mg/kg
4 | CCCN1C[C@H](C(=O)Nc2cc(C)nc(C)n2)C[C@@H]2c3cccc4[nH]cc(c34)C[C@H]21 [Example 5, N-(2',6'-dimethyl-4'-pyrimidyl)-6-propylergoline-8β-carboxamide] |  | 0.3 mg/kg
